Assay results taken from patent US20250289826A1, “PLPRO PROTEIN INHIBITOR, AND PREPARATION METHOD AND APPLICATION THEREOF” (priority 2022, published 2025).

Biological target: PLpro (Severe acute respiratory syndrome coronavirus 2 (2019-nCoV) (SARS-CoV-2), UniProt P0DTD1)
Experiment: Assay for PLpro inhibitory activity (Ub-AMC fluorescence; single point inhibition test and IC50 determination)
Assay type: biochemical
Settings: for IC50: fluorescence measured after 15 min of reaction; for inhibition at 1 µM: read-out: inhibition of PLpro (1 μM), 1 μM test compound, 100 nM PLpro, 10 μM Ub-AMC, 37° C. 30 min; for inhibition of PLpro (1 μM): 1 μM test compound, 100 nM PLpro, 10 μM Ub-AMC, 37° C. 30 min

SMILES	IC50 [µM]	inhibition at 1 µM [%]	inhibition of PLpro (1 μM) [%]
Cc1ccc(N2CC3CCC(C2)N3)cc1C(=O)NC1(c2cccc3cc(F)ccc23)CC1 [Example C1]	0.083 ± 0.00663	97.7	
Cc1ccc(N2CCNCC2)cc1C(=O)NC1(c2ccc(F)c3ccccc23)CC1 [Example C2]	0.098 ± 0.0121	96.4	
Cc1ccc(N2CC3CCC(C2)N3)cc1C(=O)NC1(c2ccc(F)c3ccccc23)CC1 [Example C3]	0.0401 ± 0.00301	96.2	
Cc1ccc(N2CC3CCC(C2)N3)cc1C(=O)NC1(c2cccc(-c3cccs3)c2)CC1 [Example C4]		73.4	
Cc1ccc(N2CC3CCC(C2)N3C)cc1C(=O)NC1(c2cccc(-c3cccs3)c2)CC1 [Example C5]	0.104 ± 0.00602	79.5	
Cc1ccc(N2CCNCC2)cc1C(=O)NC1(c2cccc(-c3cccs3)c2)CC1 [Example C6]		56.5	
Cc1ccc(N2CC3CCC(C2)N3)cc1C(=O)NC1(c2cccc(C(C)(C)C)c2)CC1 [Example C7]		15	
Cc1ccc(N2CC3CCC(C2)N3C)cc1C(=O)NC1(c2cccc(C(C)(C)C)c2)CC1 [Example C8]		37.2	
Cc1ccc(N2CC(N(C)C)C2)cc1C(=O)NC1(c2cccc3cc(F)ccc23)CC1 [Example C9]	0.0521 ± 0.00418	98	
Cc1ccc(N2CC(N(C)C)C2)cc1C(=O)NC1(c2cccc3cc(F)c(F)cc23)CC1 [Example C10]	0.013 ± 0.00276	98.2	
Cc1ccc(N2CC(N(C)C)C2)cc1C(=O)NC1(c2ccc(Cl)c3ccccc23)CC1 [Example C11]	0.0831 ± 0.0127	96.8	
COc1ccc(C2(NC(=O)c3cc(N4CC(N(C)C)C4)ccc3C)CC2)c2ccccc12 [Example C12]	0.0186 ± 0.0023	97.8	
Cc1ccc(N2CC(N(C)C)C2)cc1C(=O)NC1(c2ccc(Br)c3ccccc23)CC1 [Example C13]	0.0798 ± 0.00604	98.5	
Cc1ccc(N2CC(N(C)C)C2)cc1C(=O)NC1(c2ccc(C)c3ccccc23)CC1 [Example C14]	0.205 ± 0.0136	95.1	
Cc1ccc(N2CC(N(C)C)C2)cc1C(=O)NC1(c2ccc(OC(F)F)c3ccccc23)CC1 [Example C15]			98.0
Cc1ccc(N2CC(N(C)C)C2)cc1C(=O)NC1(c2ccc(F)c3ccccc23)CC1 [Example C16]	0.0564 ± 0.00848	89.4	
Cc1ccc(N2CC(N(C)C)C2)cc1C(=O)NC1(c2cccc3c(Cl)cccc23)CC1 [Example C17]	0.0187 ± 0.00529	98.1	
Cc1ccc(N2CC(N(C)C)C2)cc1C(=O)NC1(c2cccc3c(F)cccc23)CC1 [Example C18]	0.0178 ± 0.00194	97.6	
Cc1ccc(N2CC(N(C)C)C2)cc1C(=O)NC1(c2ccccc2)CC1 [Example C19]		4.9	
Cc1ccc(N2CC(N(C)C)C2)cc1C(=O)NC1(c2csc3ccccc23)CC1 [Example C20]	0.0765 ± 0.00948	91.9	
Cc1ccc(N2CC(N(C)C)C2)cc1C(=O)NC1(c2cccc3c2CCCC3)CC1 [Example C21]	0.0911 ± 0.00822	90.4	
Cc1ccc(N2CC(N(C)C)C2)cc1C(=O)NC1(c2ccc(-c3ccccc3)cc2)CC1 [Example C22]		0	
Cc1ccc(N2CC(N(C)C)C2)cc1C(=O)NC1(c2cccc(-c3ccccc3)c2)CC1 [Example C23]		5.8	
Cc1ccc(N2CC(N(C)C)C2)cc1C(=O)NC1(c2cccc3occc23)CC1 [Example C24]	0.423 ± 0.0614	82.3	

SMILES	IC50 [µM]	inhibition at 1 µM [%]	inhibition of PLpro (1 μM) [%]
Cc1ccc(N2CC(N(C)C)C2)cc1C(=O)NC1(C2=CCCc3ccccc32)CC1 [Example C25]		55	
Cc1ccc(N2CC(N(C)C)C2)cc1C(=O)NC1(c2cccc3ncccc23)CC1 [Example C27]	0.0976		88.3
Cc1ccc(N2CC(N(C)C)C2)cc1C(=O)NC1(c2ccnc3ccccc23)CC1 [Example C28]	0.129	89.7	
Cc1ccc(N2CC(N(C)C)C2)cc1C(=O)NC1(c2ccnc3c(Cl)cccc23)CC1 [Example C29]	0.0449	92.9	
COc1cccc2c(C3(NC(=O)c4cc(N5CC(N(C)C)C5)ccc4C)CC3)ccnc12 [Example C30]	0.0674	91.5	
Cc1ccc(N2CCCC(N(C)C)C2)cc1C(=O)NC1(c2ccc(F)c3ccccc23)CC1 (centres unmarked) [Example C31]		49.2	
Cc1ccc(N2CCCC(N(C)C)C2)cc1C(=O)NC1(c2ccnc3ccccc23)CC1 (centres unmarked) [Example C32]		43.9	
Cc1ccc(N2CCS(=O)(=O)CC2)cc1C(=O)NC1(c2ccnc3ccccc23)CC1 [Example C33]		41	
Cc1ccc(NC2CN3CCC2CC3)cc1C(=O)NC1(c2ccnc3ccccc23)CC1 (centres unmarked) [Example C34]		31.1	
Cc1ccc(N2CCS(=O)(=O)CC2)cc1C(=O)NC1(c2ccc(F)c3ccccc23)CC1 [Example C35]		2.6	
COC1(C)CN(c2ccc(C)c(C(=O)NC3(c4cccc5ncccc45)CC3)c2)C1 [Example C36]		3.5	
Cc1ccc(N2CC(C(=O)O)C2)cc1C(=O)NC1(c2cccc3ncccc23)CC1 [Example C37]		12.6	
COC1(C)CN(c2ccc(C)c(C(=O)NC3(c4ccc(F)c5ncccc45)CC3)c2)C1 [Example C38]		11.7	
Cc1ccc(NC2CN3CCC2CC3)cc1C(=O)NC1(c2ccc(F)c3ncccc23)CC1 (centres unmarked) [Example C39]		40.8	
Cc1ccc(N2CCCC(N(C)C)C2)cc1C(=O)NC1(c2ccc(F)c3ncccc23)CC1 (centres unmarked) [Example C40]		55.2	
Cc1ccc(N2CCS(=O)(=O)CC2)cc1C(=O)NC1(c2ccc(F)c3ncccc23)CC1 [Example C41]		32.8	
Cc1ccc(N2CCN(C(C)C)CC2)cc1C(=O)NC1(c2ccnc3ccccc23)CC1 [Example C42]		85.2	
Cc1ccc(N2CCN(C3CC3)CC2)cc1C(=O)NC1(c2ccnc3ccccc23)CC1 [Example C43]		71.9	
Cc1ccc(N2CCN(C(C)C)CC2)cc1C(=O)NC1(c2ccc(F)c3ncccc23)CC1 [Example C44]		84.9	
Cc1ccc(N2CCN(C3CC3)CC2)cc1C(=O)NC1(c2ccc(F)c3ncccc23)CC1 [Example C45]		81.4	
Cc1ccc(N2CCN(C3CC3)CC2)cc1C(=O)NC1(c2cccc3ncccc23)CC1 [Example C46]		77.6	
Cc1ccc(N2CC(N(C)C)C2)cc1C(=O)NC1(c2ccc3ccccc3c2)CC1 [Example C47]		58	
Cc1ccc(N2CCN(C(C)C)CC2)cc1C(=O)NC1(c2ccc(F)c3ccccc23)CC1 [Example C48]		84.4	
Cc1ccc(N2CCN(C3CC3)CC2)cc1C(=O)NC1(c2ccc(F)c3ccccc23)CC1 [Example C49]		58.4	

SMILES	IC50 [µM]	inhibition at 1 µM [%]	inhibition of PLpro (1 μM) [%]
Cc1ccc(NC2CCNC2)cc1C(=O)NC1(c2ccc(F)c3ccccc23)CC1 (centres unmarked) [Example C50]		27.8	
Cc1ccc(NC2CCN(C)CC2)cc1C(=O)NC1(c2ccc(F)c3ncccc23)CC1 [Example C51]		38.4	
Cc1ccc(NC2CCNC2)cc1C(=O)NC1(c2ccc(F)c3ncccc23)CC1 (centres unmarked) [Example C53]		44.9	
Cc1ccc(NC2CCNCC2)cc1C(=O)NC1(c2ccc(F)c3ncccc23)CC1 [Example C56]		24.5	
Cc1ccc(N2CC(N(C)C)C2)cc1C(=O)NC1(c2cccc3ccsc23)CC1 [Example C57]		92	
Cc1ccc(N2CC(N(C)C)C2)cc1C(=O)NC1(c2ccc(OC(F)(F)F)c3ncccc23)CC1 [Example C58]	0.22	88	
Cc1ccc(N2CC([N+](C)(C)[O-])C2)cc1C(=O)NC1(c2ccc(F)c3ncccc23)CC1 [Example C59]		0	
Cc1ccc(N2CC(N(C)C)C2)cc1C(=O)NC1(c2ccc(F)c3[nH]c(=O)ccc23)CC1 [Example C60]		82	
Cc1ccc(N2CC(N(C)C)C2)cc1C(=O)NC1(c2cc(C(F)(F)F)nc3c(C(F)(F)F)cccc23)CC1 [Example C61]		85	
Cc1ccc(N2CC(N(C)C)C2)cc1C(=O)NC1(c2ccc(F)c3nc(C(F)F)ccc23)CC1 [Example C62]		92	
Cc1ccc(N2CCC(O)CC2)cc1C(=O)NC1(c2ccc(F)c3ncccc23)CC1 [Example C63]		30	
COc1ccc2c(C3(NC(=O)c4cc(N5CC(N(C)C)C5)ccc4C)CC3)ccc(F)c2n1 [Example C64]	0.0506	78	
Cc1ccc(N2CC(C(C)(C)O)C2)cc1C(=O)NC1(c2ccc(F)c3ncccc23)CC1 [Example C65]		22	
Cc1ccc(N2CC3C(N)C3C2)cc1C(=O)NC1(c2ccc(F)c3ncccc23)CC1 (centres unmarked) [Example C66]		68	
Cc1ccc(N2CC(N(C)C)C2)cc1C(=O)NC1(c2ccnc3c(F)cccc23)CC1 [Example C67]	0.0367	97.7	
Cc1ccc(N2CC(N(C)C)C2)cc1C(=O)NC1(c2ccc(OC(F)F)c3ccccc23)CC1 [Example C68]	0.181	98.5	
Cc1ccc(N2CC(N(C)C)C2)cc1C(=O)NC1(c2ccc(OC(F)F)c3ncccc23)CC1 [Example C69]	0.0293	98.8	
Cc1ccc(N2CC(N(C)C)C2)cc1C(=O)NC1(c2ccc(C#N)c3ccccc23)CC1 [Example C70]	0.0406	99.2	
Cc1ccc(N2CC(N(C)C)C2)cc1C(=O)NC1(c2cccc(Oc3ccccc3)c2)CC1 [Example C71]		25	
Cc1ccc(N2CC(N(C)C)C2)cc1C(=O)NC1(c2ccc3c(c2)c2ccccc2n3C)CC1 [Example C72]		91	
Cc1ccc(N2CC(N(C)C)C2)cc1C(=O)NC1(c2cnc(O)c3ccccc23)CC1 [Example C73]	0.172 ± 0.0181	89.3	
COc1ncc(C2(NC(=O)c3cc(N4CC(N(C)C)C4)ccc3C)CC2)c2ccccc12 [Example C74]	0.217 ± 0.0222	88.6	
